# Data as given in patent US20250074871A1, “PHENETHYLAMINES AND METHODS OF PREPARATION THEREOF” (priority 2022, published 2025).
# “And” between values parts separate entries of the source, which are not always exact repeats. Equal values may be shown once. Read-outs that look alike come from different tables or passages of the source.
# Experiments:
# 5-HT2A receptor = target: T1, 5-HT2A receptor (Homo sapiens, UniProt P28223); assay: 5-HT2A Gq dissociation BRET functional assay; type: cell-based; conditions: for 5-HT2A BRET Eff %: normalized to % 5-HT stimulation
# T1 construct: expressed in transfected cells; host or cells: HEK293T
# T1 sequence (P28223 whole entry): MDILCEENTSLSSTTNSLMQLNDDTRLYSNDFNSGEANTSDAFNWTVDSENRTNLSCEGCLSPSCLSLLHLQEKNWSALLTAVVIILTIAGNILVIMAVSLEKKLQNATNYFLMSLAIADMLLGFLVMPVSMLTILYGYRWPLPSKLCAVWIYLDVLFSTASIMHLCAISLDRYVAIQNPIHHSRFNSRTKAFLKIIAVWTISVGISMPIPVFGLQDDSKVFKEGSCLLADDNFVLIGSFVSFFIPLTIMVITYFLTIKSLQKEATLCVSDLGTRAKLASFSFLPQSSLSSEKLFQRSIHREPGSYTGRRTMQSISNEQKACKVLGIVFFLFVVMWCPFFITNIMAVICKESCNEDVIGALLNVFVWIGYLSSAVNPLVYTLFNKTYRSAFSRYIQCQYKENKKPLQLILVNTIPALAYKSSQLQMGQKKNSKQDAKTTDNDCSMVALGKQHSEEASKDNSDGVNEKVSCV
# 5-HT2B receptor = target: T2, 5-HT2B receptor (Homo sapiens, UniProt P41595); assay: 5-HT2B Gq dissociation BRET functional assay; type: cell-based; conditions: for 5-HT2B BRET Eff %: normalized to % 5-HT stimulation
# T2 construct: expressed in transfected cells; host or cells: HEK293T
# T2 sequence (P41595 whole entry): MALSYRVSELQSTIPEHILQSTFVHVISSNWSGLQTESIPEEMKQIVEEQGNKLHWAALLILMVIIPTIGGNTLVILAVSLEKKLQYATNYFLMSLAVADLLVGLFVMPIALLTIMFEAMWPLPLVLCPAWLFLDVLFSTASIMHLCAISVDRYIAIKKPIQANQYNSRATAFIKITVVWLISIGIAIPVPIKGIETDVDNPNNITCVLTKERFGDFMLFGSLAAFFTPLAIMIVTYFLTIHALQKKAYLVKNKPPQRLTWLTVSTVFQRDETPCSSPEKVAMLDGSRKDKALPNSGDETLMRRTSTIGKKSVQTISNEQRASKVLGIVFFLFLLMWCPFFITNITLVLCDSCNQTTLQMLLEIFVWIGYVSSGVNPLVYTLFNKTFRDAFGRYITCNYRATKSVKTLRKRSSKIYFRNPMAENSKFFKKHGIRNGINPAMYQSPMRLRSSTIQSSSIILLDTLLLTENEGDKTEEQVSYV
# 5-HT1B = 5-HT1B (Homo sapiens, UniProt P28222); assay: 5-HT receptor activity panel (Table 3); type: cell-based; conditions: Table 3
# Chain of 5-HT1B (P28222 whole entry, species assumed): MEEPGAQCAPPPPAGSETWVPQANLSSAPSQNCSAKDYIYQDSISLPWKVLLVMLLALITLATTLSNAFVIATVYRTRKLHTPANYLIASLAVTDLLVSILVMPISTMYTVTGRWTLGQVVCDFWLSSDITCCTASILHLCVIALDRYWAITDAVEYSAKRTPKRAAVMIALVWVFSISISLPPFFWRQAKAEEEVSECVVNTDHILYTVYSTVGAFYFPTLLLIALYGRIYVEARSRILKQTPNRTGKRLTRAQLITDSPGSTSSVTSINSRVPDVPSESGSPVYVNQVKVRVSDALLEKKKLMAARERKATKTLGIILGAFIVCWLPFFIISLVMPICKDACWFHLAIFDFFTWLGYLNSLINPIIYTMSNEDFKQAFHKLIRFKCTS
# 5-HT1E = 5-HT1E (Homo sapiens, UniProt P28566); assay: 5-HT receptor activity panel (Table 3); type: cell-based
# Chain of 5-HT1E (P28566 whole entry, species assumed): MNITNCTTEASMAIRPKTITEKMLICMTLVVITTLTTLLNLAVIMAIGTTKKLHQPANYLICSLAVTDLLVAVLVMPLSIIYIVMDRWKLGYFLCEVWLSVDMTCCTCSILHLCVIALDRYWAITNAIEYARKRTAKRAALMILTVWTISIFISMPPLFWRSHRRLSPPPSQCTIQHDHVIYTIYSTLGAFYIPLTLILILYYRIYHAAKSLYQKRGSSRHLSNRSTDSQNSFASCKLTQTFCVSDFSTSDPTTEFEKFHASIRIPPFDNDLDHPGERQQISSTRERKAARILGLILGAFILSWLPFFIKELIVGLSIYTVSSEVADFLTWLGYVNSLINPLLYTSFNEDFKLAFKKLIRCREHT
# 5-HT4 = 5-HT4 (Homo sapiens, UniProt Q13639); assay: 5-HT receptor activity panel (Table 3); type: cell-based; conditions: Table 3
# Chain of 5-HT4 (Q13639 whole entry, species assumed): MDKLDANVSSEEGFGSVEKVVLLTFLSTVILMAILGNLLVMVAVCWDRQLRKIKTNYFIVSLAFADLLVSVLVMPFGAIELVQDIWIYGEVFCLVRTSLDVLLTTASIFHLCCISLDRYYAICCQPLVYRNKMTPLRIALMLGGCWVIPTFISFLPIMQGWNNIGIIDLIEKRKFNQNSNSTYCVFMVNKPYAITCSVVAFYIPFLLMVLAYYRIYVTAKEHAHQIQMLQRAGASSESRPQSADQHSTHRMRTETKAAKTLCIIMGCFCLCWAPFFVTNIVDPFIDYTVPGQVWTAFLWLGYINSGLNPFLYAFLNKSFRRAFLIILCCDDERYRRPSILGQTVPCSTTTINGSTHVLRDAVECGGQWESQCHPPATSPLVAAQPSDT
# [1] = in vitro hepatocyte clearance, monkey; type: in vitro ADME; conditions: Monkey hepatocytes; for hepatocyte CLint: read-out: In vitro Clint (μL/min/10^6 cells); for half-life: read-out: In vitro T1/2; for CLint scaled: read-out: Scale-up Clint
# Method: (§1) Additional experimentation was performed on compound 109. Table 6 summarizes, among other things, the anticipated hepatic clearance of compound 109 in various species, as specified in Table 6 and as determined by calculating the in vitro hepatocyte clearance over time and scaling such rate with such species' hepatocyte count and the anticipated liver blood flow rate in such species.
# hepatocyte [2] = assay: in vitro hepatocyte clearance, monkey; type: in vitro ADME; conditions: Monkey
# Method: as §1
# [3] = in vitro hepatocyte clearance, dog; type: in vitro ADME; conditions: for hepatocyte CLint / half-life: Dog hepatocytes; for hepatocyte CLint: read-out: In vitro Clint (μL/min/10^6 cells); for half-life: read-out: In vitro T1/2; for CLint scaled: dog, hepatocytes, read-out: Scale-up Clint
# Method: as §1
# hepatocyte [4] = assay: in vitro hepatocyte clearance, dog; type: in vitro ADME; conditions: Dog
# Method: as §1
# [5] = in vitro hepatocyte clearance, rat; type: in vitro ADME; conditions: for hepatocyte CLint / half-life: Rat hepatocytes; for hepatocyte CLint: read-out: In vitro Clint (μL/min/10^6 cells); for half-life: read-out: In vitro T1/2; for CLint scaled: rat, hepatocytes, read-out: Scale-up Clint
# Method: as §1
# hepatocyte [6] = assay: in vitro hepatocyte clearance, rat; type: in vitro ADME; conditions: Rat
# Method: as §1
# [7] = plasma and brain PK in mice; type: in vivo; conditions: mouse; for Kp: brain; for clearance: read-out: Cltot (converted); for half-life: read-out: T1/2 Vz (converted); for Vd: read-out: Vz
# Text: (§2) Table 7a and Table 7b summarize, among other things, the observed plasma and Brain P K properties in animals, and the observed plasma and Brain P K properties predicted in humans, for compound 109 in Table 7a and compound 93 for Table 7b: […]
# [8] = plasma and brain PK in rat; type: in vivo; conditions: for Kp: brain; for clearance: read-out: Cltot (converted); for half-life: read-out: T1/2 Vz (converted); for Vd: read-out: Vz
# Text: as §2
# plasma PK in dog = type: in vivo; conditions: for clearance / half-life / Vd: dog; for clearance: read-out: Cltot (converted); for half-life: read-out: T1/2 Vz (converted); for Vd: read-out: Vz
# Text: as §2
# mice = assay: head-twitch response (HTR) in mice; type: in vivo, male C57BL/6J mice; conditions: for ED50: Mus musculus
# Method: As used herein and unless otherwise specified, the term “HTR” refers to head-twitch response, which is a measurement of 5-HT2A activation in vivo.
# As used herein and unless otherwise specified, the term “mice” refers to male C57BL/6J mice (6-8 weeks old).
# HTR was assessed using a head-mounted neodymium magnet and a magnetometer detection coil, as described in Halberstadt et al., Psychopharmacology (Berl.), 2013, 227(4): 727-739. Table 8 below summarizes the ED50 in head twitch in mice of various compounds disclosed herein as compared to psilocybin. FIG. 3 illustrates the HTR relative to dose for compound 109: […]
# [9] = system: α 1a, α 2a, Kappa (KOP), μ (MOP), 5-HT transporter (SERT); assay: follow up functional assays on SafetyScreen44 hits
# Method: Various compounds disclosed herein were subjected to an in vitro SafetyScreen44™ panel for identifying off-target activity. Compounds of interest that are identified in the panel are then tested in follow up functional assays to identify if such compounds have a significant off-target risk. […] It is predicted that other compounds share similar characteristics with compound 109 and also lack of the off-target activity.
# healthy rat subjects = assay: locomotor activity test in healthy rats; type: in vivo; conditions: intraperitoneal dose of up to 30 mg/kg
# Method: (§3) Additional experimentation was also done on compound 109. Namely, an intraperitoneal dose of up to 30 mg/kg of compound 109 and various reference compounds were delivered into healthy rat subjects and surgery induced abnormal rat subjects (olfactory bulbectomized rats). […] Without being bound by theory, it is believed that these observations are a result of long lasting neuroplasticity effects of compound 109 on surgery induced abnormal rat subjects. FIG. 5 summarizes the results of this experiment. Using psilocybin as a comparative psychedelic, the results of this experiment support the notion that compound 109 provides sustainable acute antidepressant effects. Note that “VEH” refers to vehicle, and “PSIL” refers to psilocybin, in FIG. 5.
# [10] = system: olfactory bulbectomized rats; assay: locomotor/behavioral activity in olfactory bulbectomized rats; type: in vivo, rat; conditions: single intraperitoneal dose, FIG. 5
# Method: as §3
smiles,measurement,setting,value
COc1cc(C(F)(F)F)ccc1CCNCc1ccccc1O [Cpd #93],EC50,"5-HT2A receptor; 5-HT2A BRET EC50 (nM), Table 2, at least three replicate trials",0.7 nM and 1.17 nM
same,EC50,"5-HT2A receptor; 5-HT2A EC50, nM, Table 3 panel",0.3 nM
same,EC50,"5-HT2A receptor; EC50 BRET 2A, Table 4, unit inferred",1.2 nM
same,5-HT2A BRET Eff %,5-HT2A receptor; Table 2,96% and 91%
same,"5-HT2A Eff, %",5-HT2A receptor; Table 3 panel,96%
same,EC50,"5-HT2B receptor; 5-HT2B BRET EC50 (nM), Table 2, at least three replicate trials",62.3 nM and 96.2 nM
same,EC50,"5-HT2B receptor; 5-HT2B EC50, nM, Table 3 panel",64.2 nM
same,5-HT2B BRET Eff %,5-HT2B receptor; Table 2,53% and 52%
same,"5-HT2B Eff, %",5-HT2B receptor; Table 3 panel,50%
same,"5-HT1B EC50, nM",5-HT1B,Not active
same,EC50,5-HT1E,70100 nM
same,"5-HT1E Eff, %",5-HT1E; Table 3,211%
same,"5-HT4 EC50, nM",5-HT4,Not active
same,hepatocyte CLint,[1],467 µL/min/1e6 cells
same,half-life,[1],2.97 min
same,CLint scaled,[1],1680 mL/min/kg
same,Predicted hepatic CL,hepatocyte [2],42.50 mL/min/kg
same,hepatocyte CLint,[3],337 µL/min/1e6 cells
same,half-life,[3],4.11 min
same,CLint scaled,[3],2320 mL/min/kg
same,Predicted hepatic CL,hepatocyte [4],30.49 mL/min/kg
same,hepatocyte CLint,[5],< 614 µL/min/1e6 cells
same,half-life,[5],> 2.26 min
same,CLint scaled,[5],< 2870 mL/min/kg
same,Predicted hepatic CL,hepatocyte [6],<54.16 mL/min/kg
same,Kp,[7]; read-out: Brain/plasma Ratio,15.6
same,clearance,[7]; plasma,197 mL/min/kg
same,half-life,[7]; plasma,54 min
same,Vd,[7]; plasma,15.1 L/kg
same,Kp,"[8]; rat, read-out: Brain/plasma Ratio",19.6
same,clearance,"[8]; rat, plasma",127 mL/min/kg
same,half-life,"[8]; rat, plasma",82.8 min
same,Vd,"[8]; rat, plasma",15.2 L/kg
same,clearance,plasma PK in dog,53.1 mL/min/kg
same,half-life,plasma PK in dog,99.6 min
same,Vd,plasma PK in dog,7.7 L/kg
same,ED50,mice; mice,0.28 mg/kg
CSc1ccccc1CNCCc1ccc(C#N)cc1O [Cpd #109],EC50,"5-HT2A receptor; Table 2, at least three replicate trials, read-out: 5-HT2A BRET EC50",5.1 nM
same,5-HT2A BRET Eff %,5-HT2A receptor; Table 2,102%
same,"5-HT2A Eff, %",5-HT2A receptor; Table 3 panel,99%
same,EC50,"5-HT2A receptor; Table 3 panel, read-out: 5-HT2A EC50",4.8 nM
same,EC50,"5-HT2A receptor; Table 4, unit inferred, read-out: EC50 BRET 2A",4.8 nM
same,EC50,"5-HT2B receptor; Table 2, at least three replicate trials, read-out: 5-HT2B BRET EC50",3140 nM
same,5-HT2B BRET Eff %,5-HT2B receptor; Table 2,95%
same,"5-HT2B Eff, %",5-HT2B receptor; Table 3 panel,84%
same,EC50,"5-HT2B receptor; Table 3 panel, read-out: 5-HT2B EC50",3090 nM
same,"5-HT1B EC50, nM",5-HT1B,Not active
same,"5-HT1E Eff, %",5-HT1E; Table 3,12%
same,EC50,"5-HT1E; Table 3, read-out: 5-HT1E EC50",814 nM
same,"5-HT4 Eff, %",5-HT4,−3%
same,EC50,5-HT4; read-out: 5-HT4 EC50,0.2 nM
same,Follow up studies (off-target activity),[9],No significant
same,Follow up studies (off-target activity),[9]; listed as compound 109,does not possess significant off-target activity
same,hepatocyte CLint,[1],499 µL/min/1e6 cells
same,half-life,[1],2.78 min
same,CLint scaled,[1],1800 mL/min/kg
same,Hepatic Extraction Ratio (E),hepatocyte [2],0.98
same,Predicted hepatic CL,hepatocyte [2],42.57 mL/min/kg
same,hepatocyte CLint,[3],199 µL/min/1e6 cells
same,half-life,[3],6.96 min
same,CLint scaled,[3],1370 mL/min/kg
same,Hepatic Extraction Ratio (E),hepatocyte [4],0.98
same,Predicted hepatic CL,hepatocyte [4],30.22 mL/min/kg
same,hepatocyte CLint,[5],234 µL/min/1e6 cells
same,half-life,[5],5.93 min
same,CLint scaled,[5],1090 mL/min/kg
same,Hepatic Extraction Ratio (E),hepatocyte [6],0.95
same,Predicted hepatic CL,hepatocyte [6],52.55 mL/min/kg
same,Kp,[7]; read-out: Brain Plasma AUC Ratio,8.39
same,bioavailability,"[7]; plasma, IM, read-out: IM f (%)",144%
same,clearance,[7]; plasma,286 mL/min/kg
same,half-life,[7]; plasma,36 min
same,Vd,[7]; plasma,14 L/kg
same,plasma t1/2,[8]; healthy rat subjects (text b114),less than an hour
same,bioavailability,"[8]; plasma, rat, IM, read-out: IM f (%)",92.8%
same,Kp,"[8]; rat, read-out: Brain Plasma AUC Ratio",2.18
same,clearance,"[8]; rat, plasma",53.4 mL/min/kg
same,half-life,"[8]; rat, plasma",126 min
same,Vd,"[8]; rat, plasma",9.37 L/kg
same,bioavailability,"plasma PK in dog; Dog, IM, read-out: IM f (%)",120%
same,clearance,plasma PK in dog,39.7 mL/min/kg
same,half-life,plasma PK in dog,78 min
same,Vd,plasma PK in dog,4.33 L/kg
same,ED50,mice; mice,2.69 mg/kg
same,central hallucinogenic (or psychedelic) effects compared with psilocybin,mice; conclusion from Tables 6-8,less central hallucinogenic (or psychedelic) effects than traditional psychedelic compounds such as psilocybin
same,duration of psychedelic effect (HTR over time),"mice; mice, FIG. 4, different doses",less than 30 minutes
same,effect on normal locomotor activity,healthy rat subjects,no suggestion that an intraperitoneal dose of up to 30 mg/kg of such compound affects the normal locomotor activity
same,inhibition of abnormal behavioral activity,[10],significant and long lasting inhibition of abnormal behavioral activity
